Data on one substance can be found in patent EP0206783A2, “Expression and secretion of polypeptides from saccharomyces cerevisiae” (The Salk Institute Biotechnology Industrial Associates, Inc., priority 1985, dated 1986).

For the assay, the system named is pituitary cells. The experiment in a line: rat pituitary cell bioassay for GRF (release of growth hormone). The conditions noted are these: plated rat pituitary cells, dexamethasone added, GH measured by anti-rat GH RIA; yeast peptide purified, from pTRP213-transformed GG100-14D. It is filed as cell-based. How it is done: A rat pituitary cell bioassay for GRF was conducted using the purified GRF analog secreted from pTRP213-transformed S. cerevisiae cells (GG100-14D). The ability of the GRF analog to cause the release of growth hormone from the pituitary cells was measured and compared to the ability of a synthetic hGRF(1-40)-OH standard to do the same. Such an analysis allowed the biological activity of yeast-produced GRF analog to be evaluated.
Typically, pituitaries of 20 rats were removed and treated with collagenase to obtain a suspension of approximately 8×10^7 cells which were then plated in the appropriate medium. The cells, attached to tissue culture dishes, were treated with yeast-derived peptide or synthetic standard within three to five days after plating. Dexamethasone was added to enhance the effect of GRF on GH secretion; cells treated in this manner secrete 8-9 times more GH than do control cells treated with GRF but not dexamethasore. Growth hormone secretion levels were measured using an anti-rat GH RIA which had been standardized with respect to the synthetic standard.
The percent of maximum rat growth hormone secretion upon treatment of the plated pituitary cells with purified GRF analog secreted from yeast and treatment with synthetic hGRF(1-40)-OH was determined. The ED50 value for secretion with both treatments was about. 32 pM.

Ends that are not written are not given here.

Take “hGRF(1-40)-OH (YADAIFTNSYRKVLGQLSARKLLQDIMSRQQGESNQERGA-OH; UniProt P01286 32-71, looked up, fragment) [synthetic hGRF(1-40)-OH, synthetic polypeptide standard, hGRF(1-40)-OH (with Met at position 27)]”: the “ED50 value for secretion (percent of maximum rat growth hormone secretion)” value is roughly 0.032 nM.
